The record followed here is the Kinase Knowledgebase extract (Sharma et al. 2016).

pIC50: −log10 of the molar value. Numbered stars: 1 amine (or outer) side, 2 acyl side, 3 side chain; on linkers, the order of the positions; unused ones are H or OH. Square brackets hold non-standard residues; d marks the D form. Peptide text beside a SMILES is read from it. ξ: configuration not given here. X1 = CC(=O)C(=O)CCc1ccc(CC(N[*:1])C(=O)[*:2])cc1; Ile(3ξ) = CCC(C)[C@H](N)C(=O)O

For test [1], the target named is EGFR (UniProt P00533).
For test [2], the target named is MAPK14 (human) (UniProt Q16539). The test is described as follows: p38-mediated TNF-alpha Inhibition (LPS-Stimulated PBMCs). Particulars: pbmc.
Test [3] concerns the target EGFR (human) (UniProt P00533). Conditions: a431.
Test [4] concerns the target MAPK14 (human) (UniProt Q16539). The test is described as follows: Cell-Based Assay. Particulars: a375.
Test [5] addresses EGFR (human) (UniProt P00533).
The target in test [6] is EGFR (human) (UniProt P00533). Conditions: a431. This is another data set of the same source.
In test [7] the target is EGFR (UniProt P00533). This is another data set of the same source.
The target in test [8] is EGFR (human) (UniProt P00533). This is another data set of the same source.
Test [9] addresses EGFR (human) (UniProt P00533). Conditions: a431. This is another data set of the same source.
Test [10] has as its target EGFR (human) (UniProt P00533). The source holds these as a separate data set.
Test [11] concerns the target EGFR (human) (UniProt P00533). Conditions: a431. This is another data set of the same source.
The target of test [12] is EGFR (human) (UniProt P00533). Conditions: a431. This is another data set of the same source.
For test [13], the target named is EGFR (human) (UniProt P00533). Particulars: a431. The source holds these as a separate data set.
In test [14] the target is EGFR (murine) (UniProt P00533). Conditions: nih3t3.
The target of test [15] is EGFR (Balb/c mice) (UniProt P00533).
Test [16] deals with PIK3CA (human) (UniProt P42336). The test is described as follows: Assessment of PIK3CA Kinase Activity in NZOV9 Cells.
The target is the same in test [17]. The test is described as follows: Assessment of PIK3CA Kinase Activity in NZB5 Cells.
In test [18] the target is PIK3CB (Human) (UniProt P42338). As to the kind of experiment: Inhibition of PIK3CB Kinase (ATP Loss) Activity.
The target of test [19] is MAPK14 (human) (UniProt Q16539). The test is described as follows: Cellular Inhibition of MAPK14 Kinase in A549 Cells.
For test [20], the target named is PIK3CB;PIK3CG;PIK3CD;PIK3CA (human) (UniProt P48736). As to the kind of experiment: Assessment of PIK3CA/PIK3CB/PIK3CD/PIK3CG Kinase Activity.
Test [21] deals with EGFR (human) (UniProt P00533). The source holds these as a separate data set.
Test [22] addresses PIK3CA (human) (UniProt P42336). The test is described as follows: Inhibition of PIK3CA Kinase Activity.
The target is the same in test [23]. As to the kind of experiment: Assesment of Cell Proliferation of IGROV-1 Cells Using SRB Assay.

Sequence of EGFR (P00533 whole entry, looked up): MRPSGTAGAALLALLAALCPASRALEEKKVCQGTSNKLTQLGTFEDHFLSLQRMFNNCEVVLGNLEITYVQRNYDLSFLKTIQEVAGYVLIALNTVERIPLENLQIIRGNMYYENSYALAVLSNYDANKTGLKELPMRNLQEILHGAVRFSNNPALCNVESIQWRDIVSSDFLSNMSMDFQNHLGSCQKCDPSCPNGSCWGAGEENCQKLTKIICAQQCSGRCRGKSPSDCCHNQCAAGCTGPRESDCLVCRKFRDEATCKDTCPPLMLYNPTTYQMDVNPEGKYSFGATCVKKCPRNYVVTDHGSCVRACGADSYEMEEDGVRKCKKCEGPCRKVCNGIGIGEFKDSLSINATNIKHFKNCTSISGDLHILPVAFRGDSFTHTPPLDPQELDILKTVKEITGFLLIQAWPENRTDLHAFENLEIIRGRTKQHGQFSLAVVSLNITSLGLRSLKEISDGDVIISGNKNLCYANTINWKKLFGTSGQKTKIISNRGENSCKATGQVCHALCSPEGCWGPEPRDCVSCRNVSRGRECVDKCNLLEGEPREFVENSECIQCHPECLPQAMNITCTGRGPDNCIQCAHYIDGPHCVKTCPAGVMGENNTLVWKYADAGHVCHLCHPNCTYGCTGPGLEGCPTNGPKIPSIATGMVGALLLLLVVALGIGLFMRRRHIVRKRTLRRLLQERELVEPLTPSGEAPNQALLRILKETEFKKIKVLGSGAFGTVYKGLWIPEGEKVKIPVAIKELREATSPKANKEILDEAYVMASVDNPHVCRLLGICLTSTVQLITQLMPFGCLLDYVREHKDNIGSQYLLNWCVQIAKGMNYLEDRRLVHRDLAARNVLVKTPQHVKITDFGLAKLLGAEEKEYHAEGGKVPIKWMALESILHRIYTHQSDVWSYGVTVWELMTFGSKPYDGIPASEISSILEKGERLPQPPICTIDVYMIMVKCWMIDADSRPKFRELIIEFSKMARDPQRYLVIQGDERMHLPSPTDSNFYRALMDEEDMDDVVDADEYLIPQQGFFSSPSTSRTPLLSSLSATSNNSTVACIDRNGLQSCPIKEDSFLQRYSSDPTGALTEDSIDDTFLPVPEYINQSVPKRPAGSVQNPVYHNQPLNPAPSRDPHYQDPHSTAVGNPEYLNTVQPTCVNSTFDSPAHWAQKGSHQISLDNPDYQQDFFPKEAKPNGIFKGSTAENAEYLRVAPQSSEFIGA
Sequence of EGFR (human) (P00533 whole entry, looked up): as above
Sequence of PIK3CA (human) (P42336 whole entry, looked up): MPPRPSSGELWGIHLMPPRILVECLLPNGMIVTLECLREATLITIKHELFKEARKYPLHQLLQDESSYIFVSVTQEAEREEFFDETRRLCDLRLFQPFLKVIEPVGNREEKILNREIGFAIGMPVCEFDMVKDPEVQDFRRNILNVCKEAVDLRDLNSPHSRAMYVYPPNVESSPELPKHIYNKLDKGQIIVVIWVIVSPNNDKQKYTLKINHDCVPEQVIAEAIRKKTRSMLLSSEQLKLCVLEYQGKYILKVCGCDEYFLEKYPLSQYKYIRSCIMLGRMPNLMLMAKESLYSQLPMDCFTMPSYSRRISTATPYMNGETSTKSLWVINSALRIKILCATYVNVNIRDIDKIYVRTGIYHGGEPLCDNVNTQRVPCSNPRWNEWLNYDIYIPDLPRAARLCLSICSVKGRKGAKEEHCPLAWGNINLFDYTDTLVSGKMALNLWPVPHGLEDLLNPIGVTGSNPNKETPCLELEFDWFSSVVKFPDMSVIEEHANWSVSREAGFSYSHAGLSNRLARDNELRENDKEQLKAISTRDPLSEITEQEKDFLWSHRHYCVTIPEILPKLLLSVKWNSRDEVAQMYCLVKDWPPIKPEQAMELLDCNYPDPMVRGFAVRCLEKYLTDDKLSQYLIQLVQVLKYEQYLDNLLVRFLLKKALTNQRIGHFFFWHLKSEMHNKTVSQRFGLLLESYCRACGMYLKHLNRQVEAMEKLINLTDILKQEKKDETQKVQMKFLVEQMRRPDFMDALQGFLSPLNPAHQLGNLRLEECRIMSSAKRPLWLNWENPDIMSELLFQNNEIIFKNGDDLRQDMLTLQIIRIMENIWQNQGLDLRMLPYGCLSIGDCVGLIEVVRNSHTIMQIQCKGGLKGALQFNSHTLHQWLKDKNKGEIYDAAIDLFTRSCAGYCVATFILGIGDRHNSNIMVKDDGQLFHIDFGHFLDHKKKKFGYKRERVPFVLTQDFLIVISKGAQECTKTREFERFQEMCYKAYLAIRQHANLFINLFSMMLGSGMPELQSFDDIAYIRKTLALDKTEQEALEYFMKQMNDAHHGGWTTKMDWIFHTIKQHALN
Sequence of MAPK14 (human) (Q16539 whole entry, looked up): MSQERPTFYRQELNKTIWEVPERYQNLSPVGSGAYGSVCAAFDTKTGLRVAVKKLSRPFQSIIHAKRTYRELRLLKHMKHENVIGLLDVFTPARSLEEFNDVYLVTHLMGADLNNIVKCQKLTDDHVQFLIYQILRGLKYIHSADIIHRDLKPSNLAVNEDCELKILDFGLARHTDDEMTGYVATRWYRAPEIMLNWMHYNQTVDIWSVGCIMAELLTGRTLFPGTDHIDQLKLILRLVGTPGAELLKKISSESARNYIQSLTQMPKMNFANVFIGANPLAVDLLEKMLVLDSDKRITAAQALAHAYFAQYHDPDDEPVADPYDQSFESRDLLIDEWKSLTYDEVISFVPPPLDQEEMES
Sequence of EGFR (murine) (P00533 whole entry, looked up): as the sequence (P00533 whole entry, looked up) above

For `CCC(C)[C@H](NC(=O)[C@H](CCC(=O)O)NC(=O)[C@H](CCC(=O)O)NC(=O)C(Cc1ccc(CCC(=O)C(C)=O)cc1)NC(C)=O)C(=O)N[C@@H](CCC(=O)O)C(=O)O` (stereo not given in full) (Ac-[X1]EE[Ile(3ξ)]E-OH), in test [1], the pIC50 (commonly the negative decadic logarithm of the IC50, by convention in mol/L) is at least 3.59.
Consider `COC(=O)c1ccccc1Sc1ccc2c(-c3c(Cl)cccc3Cl)c(=O)ncn2n1`, for which the negative-log IC50 (pIC50) in test [2] was 6.43.
`CCOc1ccc(-c2cc(C(F)(F)F)c(C#N)c(SCC(=O)NCC(=O)O)n2)cc1` showed a pIC50 in test [3] of under 4.30.
The molecule `CN(C)CCOc1ccc(-c2nc(-c3ccc4c(c3)CC/C4=N\O)c(-c3ccncc3)[nH]2)cc1` had a negative-log IC50 (pIC50) in test [4] of under 5.00.
Turning to `C=CC(=O)N1CCC[C@H](n2cnc3c(N)nc(Nc4ccc(N5CCCCC5)cc4)nc32)C1`, the pIC50 in test [5] was 6.46.
Molecule `COc1ccc(OC)c(Cc2cc3c(Nc4cccc(Br)c4)ncnc3[nH]2)c1` showed a pIC50 in [6] of 5.35.
With `Nc1nc(Nc2ccc(Cl)cc2Br)c2cc(Cc3ccc(Cl)cc3Cl)[nH]c2n1`, the pIC50 in [6] is 4.79.
In [7], `COc1cc2ncnc(N(C)c3ccccc3)c2cc1OC` showed a pIC50 of 5.40.
Take `C=C=CCCCCCOc1cc2c(Nc3ccc(F)c(Cl)c3)ncnc2cc1OC`: in test [8], the pIC50 is 8.35. Further, the GI50 (in general, the concentration that inhibits growth by half) in test [9] was 0.586 µM.
`C#Cc1cc(Nc2ncnc3cc(OC)c(OCCCCCCC(=O)O)cc23)ccc1O` showed a negative logarithm of the IC50 (pIC50) in test [10] of at least 7.00.
On to `C=CC(=O)N1CCC[C@H](n2cnc3c(N)nc(Nc4ccc(OCCOC)cc4)nc32)C1`, for which the pIC50 in [5] was 6.98.
`CCOc1cc2ncnc(Nc3ccc(F)c(Cl)c3)c2cc1NC(=O)/C=C/[C@H]1CCCN1C` had a pIC50 in test [11] of 8.10.
`Cc1ccccc1Cc1cc2c(Nc3ccc(Cl)cc3)nc(N)nc2[nH]1`: the values for the negative logarithm of the IC50 (pIC50) in test [12] and in test [13] were 6.62 and 5.25, respectively.
Consider `CCOc1cc2ncc(C#N)c(Nc3ccc(OCc4ccccn4)c(Cl)c3)c2cc1NC(=O)/C=C/[C@@H]1CCCN1`, for which the pIC50 in test [11] was 8.52.
As to `COc1cc2ncnc(Nc3cccc(Cl)c3)c2cc1OC`, in test [14], the pIC50 was over 7.82. Besides, the LD50 – broadly, the dose at which mortality reaches 50% – in test [15] was over 200 mg/kg. The GI50 in test [9] was determined as 0.302 µM.
With `Cc1ccc([N+](=O)[O-])cc1S(=O)(=O)N(C)N=Cc1cnn2ccc(O)cc12`, the pIC50 in test [16] and in [17] was under 4.70 in each case.
On to `Nc1nc(Nc2ccc(Cl)cc2F)c2cc(Cc3cccc4ccccc34)[nH]c2n1`, for which the pIC50 is under 3.70 in test [12] and 4.33 in [13].
`C=CC(=O)N1CCC[C@H](n2cnc3c(N)nc(Nc4ccc(N5CCOCC5)cc4)nc32)C1` showed a pIC50 in [5] of 6.22.
`FC(F)(F)c1cccc(Nc2ncnc3[nH]c(Cc4ccc(Cl)cc4Cl)cc23)c1` showed a negative-log IC50 (pIC50) in test [6] of 3.70.
The molecule `COc1cc2ncnc(Nc3ccccc3)c2cc1OC` gave a pIC50 in [7] of 7.30.
With `O=S(=O)(Nc1cc(-c2ccc3cnccc3c2)cnc1Cl)c1ccc(F)cc1`, the negative-log IC50 (pIC50) in test [18] is 4.40.
Consider `COC(=O)NC[C@H](C)Nc1nccc(-c2cn(C(C)C)nc2-c2cc(Cl)cc(NS(C)(=O)=O)c2F)n1`, for which the pIC50 in test [19] was 6.16.
As to `Oc1cccc(-c2c(F)cnc3[nH]c4cnc(-c5cccnc5)cc4c23)c1`, in [20], the negative-log IC50 (pIC50) was 6.00 to 7.00.
For the molecule `CCN(c1ccc(N2CCOCC2)cc1)c1ncnc2nc(Nc3ccc(S(N)(=O)=O)cc3)sc12`, the negative logarithm of the IC50 (pIC50) in [21] was 5.00.
As to `Cc1ccccc1Cc1cc2c(Nc3ccc(Cl)cc3F)nc(N)nc2[nH]1`, the pIC50 in [12] and in test [13] was under 3.70 in each case.
`CCCS(=O)(=O)Nc1ccc(F)c(C(=O)c2c[nH]c3ncc(Cl)cc23)c1F` had a negative logarithm of the IC50 (pIC50) in test [4] of under 5.00.
Molecule `c1ccc(CCNc2nc(-c3ccc4cc[nH]c4c3)cc(N3CCOCC3)n2)nc1` gave a pIC50 in test [22] of 5.05. This molecule displayed a GI50 in test [23] of 3.6 µM.
